target: T1, LRRK2 wild type (recombinant human, catalytic domain amino acids 970-2527, GST-tagged) (Homo sapiens, UniProt Q5S007); assay: LRRK2 wild type protein kinase assay ([γ-33P] ATP, peptide substrate […]), IC50; type: biochemical; conditions: LRRK2 (variant not given); read-out: Potency score, LRRK2 IC50
T1 construct: The wild type used was recombinant human, catalytic domain (amino acids 970-2527) GST-tagged, expressed in insect cells; GST; purchased Invitrogen Corporation PV4873; host or cells: insect cells
Excerpt: All LRRK2 protein kinases were of human origin and were sourced from Invitrogen Corporation (Carlsbad, Calif. 92008 USA) unless otherwise indicated. The active mutant used was recombinant human, catalytic domain (amino acids 970-2527) containing a G2019S mutation, GST-tagged, expressed in insect cells (Invitrogen Cat#PV4881). The wild type used was recombinant human, catalytic domain (amino acids 970-2527) GST-tagged, expressed in insect cells (Invitrogen Cat#PV4873). The kinase dead mutant used was recombinant human, catalytic domain (amino acids 970-2527) containing a D1994A mutation, GST-tagged, expressed in insect cells (Invitrogen Cat#PM4041AE). No special measures were taken to activate any of the kinases.
All assays were carried out at room temperature (˜21° C.) and were linear with respect to time and enzyme concentration under the conditions used. Assays were performed for 180 min in a 96 well format. LRRK2 was present at a concentration of approximately 5 nM. The enzyme was diluted and assayed in 50 mM Tris-HCl pH7.5, 0.1 mM EGTA, 1 mM DTT and 10 mM MgCl2. The concentration of magnesium chloride in the assay was 10 mM. The [γ-33P] […] The peptide substrate in the assay was […] at 100 μM.
The assays were initiated with Mg/ATP and stopped by the addition of 25 μl/well 50% orthophosphoric acid. Reactions were harvested onto Whatman P81 Unifilter Plates (Fisher Scientific. Loughborough, LE115RG, UK. Cat# FDU-105-020U) using a Tomtec harvester. (Tomtec Hamden, Conn. 06514. USA) Plates were counted using a Perkin Elmer Top Count NX7. (Perkin Elmer, Shelton Conn. 06484-4794 USA)
IC50 values of inhibitors were determined after carrying out assays at 10 different concentrations of each compound in duplicate.

T1 sequence (Q5S007 970-2527): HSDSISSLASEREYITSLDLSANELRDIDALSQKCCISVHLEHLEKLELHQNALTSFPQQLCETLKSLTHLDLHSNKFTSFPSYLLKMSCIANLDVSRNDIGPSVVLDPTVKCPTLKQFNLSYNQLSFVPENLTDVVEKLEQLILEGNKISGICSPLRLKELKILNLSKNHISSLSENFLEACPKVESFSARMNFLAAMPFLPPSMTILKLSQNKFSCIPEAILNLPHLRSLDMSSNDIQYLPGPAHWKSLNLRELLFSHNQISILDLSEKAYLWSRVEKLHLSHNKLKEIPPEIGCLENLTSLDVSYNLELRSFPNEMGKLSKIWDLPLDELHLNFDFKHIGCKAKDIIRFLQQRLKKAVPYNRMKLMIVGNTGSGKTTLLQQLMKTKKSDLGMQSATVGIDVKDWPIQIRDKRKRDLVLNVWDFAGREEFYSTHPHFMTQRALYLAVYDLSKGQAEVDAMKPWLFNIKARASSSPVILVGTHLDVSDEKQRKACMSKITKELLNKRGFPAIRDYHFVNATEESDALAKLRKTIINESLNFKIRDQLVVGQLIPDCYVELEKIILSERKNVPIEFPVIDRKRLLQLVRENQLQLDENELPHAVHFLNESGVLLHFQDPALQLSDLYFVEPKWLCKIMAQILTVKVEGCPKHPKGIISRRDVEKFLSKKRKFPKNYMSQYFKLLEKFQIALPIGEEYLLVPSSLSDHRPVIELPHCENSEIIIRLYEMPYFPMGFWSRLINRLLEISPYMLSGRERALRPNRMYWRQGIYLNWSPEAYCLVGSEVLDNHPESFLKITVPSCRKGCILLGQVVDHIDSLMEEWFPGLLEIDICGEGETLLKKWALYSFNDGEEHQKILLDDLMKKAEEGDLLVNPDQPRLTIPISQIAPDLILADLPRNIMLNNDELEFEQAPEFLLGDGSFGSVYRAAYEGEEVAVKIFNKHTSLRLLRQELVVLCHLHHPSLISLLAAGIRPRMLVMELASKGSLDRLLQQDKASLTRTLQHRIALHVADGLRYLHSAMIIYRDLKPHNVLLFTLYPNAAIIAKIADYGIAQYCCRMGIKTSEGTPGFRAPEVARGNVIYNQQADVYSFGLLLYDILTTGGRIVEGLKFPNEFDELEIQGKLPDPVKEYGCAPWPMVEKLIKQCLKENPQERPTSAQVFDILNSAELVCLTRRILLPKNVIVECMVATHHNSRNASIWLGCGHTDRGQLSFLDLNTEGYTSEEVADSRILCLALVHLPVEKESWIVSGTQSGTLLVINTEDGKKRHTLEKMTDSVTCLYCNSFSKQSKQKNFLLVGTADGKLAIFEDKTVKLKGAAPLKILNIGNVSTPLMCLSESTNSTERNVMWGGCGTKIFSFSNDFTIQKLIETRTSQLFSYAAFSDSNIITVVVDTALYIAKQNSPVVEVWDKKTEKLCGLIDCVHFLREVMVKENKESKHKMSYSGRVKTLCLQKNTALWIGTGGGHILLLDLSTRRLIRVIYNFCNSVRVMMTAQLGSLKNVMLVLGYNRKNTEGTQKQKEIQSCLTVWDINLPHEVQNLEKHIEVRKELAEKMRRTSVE

| SMILES | IC50 |
| --- | --- |
| O=C(CCc1n[nH]c2ccnc(NC3CCCCC3)c12)N1CCC(O)(c2ccccc2)CC1 [Example 176, 3-(4-Cyclohexylamino-1H-pyrazolo[4,3-c]pyridin-3-yl)-1-(4-hydroxy-4-phenyl-piperidin-1-yl)-propan-1-one] | 100 to 1000 nM |
| Fc1cc(C(F)(F)F)ccc1-c1n[nH]c2ccnc(NC3CCCCC3)c12 [Example 166, Cyclohexyl-[3-(2-fluoro-4-trifluoromethyl-phenyl)-1H-pyrazolo[4,3-c]pyridin-4-yl]-amine] | 1000 to 10000 nM |
| Cc1n[nH]c2ccnc(NC(C)CC(C)C)c12 (stereo not shown) [Example 45, (1,3-Dimethyl-butyl)-(3-methyl-1H-pyrazolo[4,3-c]pyridin-4-yl)-amine] | 1000 to 10000 nM |
| Cc1n[nH]c2ccnc(OCC3CCCCC3)c12 [Example 278, 4-Cyclohexyl-methoxy-3-methyl-1H-pyrazolo[4,3-c] pyridine] | 100 to 1000 nM |
| O=C(Nc1ccc(CCc2n[nH]c3ccnc(NC4CCCCC4)c23)cc1)c1ccc2nccnc2c1 [Example 270, Quinoxaline-6-carboxylic acid {4-[2-(4-cyclohexylamino-1H-pyrazolo[4,3-c]pyridin-3-yl)-ethyl]-phenyl}-amide] | < 100 nM |
| c1cc2[nH]nc(-c3ccc(N4CCOCC4)cc3)c2c(NC2CCCCC2)n1 [Example 152, Cyclohexyl-[3-(4-morpholin-4-yl-phenyl)-1H-pyrazolo[4,3-c]pyridin-4-yl]-amine] | 100 to 1000 nM |
| O=C(CCc1n[nH]c2ccnc(NC3CCCCC3)c12)NCC1CCOCC1 [Example 185, 3-(4-Cyclohexylamino-1H-pyrazolo[4,3-c]pyridin-3-yl)-N-(tetrahydro-pyran-4-ylmethyl)-propionamide] | 1000 to 10000 nM |
| COc1nccc2[nH]nc(CCC(=O)N3CCC[C@H](c4ccccc4)C3)c12 [Example 260, 3-(4-Methoxy-1H-pyrazolo[4,3-c]pyridin-3-yl)-1-((R)-3-phenyl-piperidin-1-yl)-propan-1-one] | 100 to 1000 nM |
| Cc1n[nH]c2ccnc(NC3CCN(C(=O)CCN4CCOCC4)CC3)c12 [Example 103, 1-[4-(3-Methyl-1H-pyrazolo[4,3-c]pyridin-4-ylamino)-piperidin-1-yl]-3-morpholin-4-yl-propan-1-one] | 1000 to 10000 nM |
| O=C(CCc1n[nH]c2ccnc(NC3CCCCC3)c12)N1CCN(Cc2ccc(F)cc2F)CC1 [Example 179, 3-(4-Cyclohexylamino-1H-pyrazolo[4,3-c]pyridin-3-yl)-1-[4-(2,4-difluoro-benzyl)-piperazin-1-yl]-propan-1-one] | 100 to 1000 nM |
| Cc1n[nH]c2ccnc(Nc3cccc(N4CCOCC4)c3)c12 [Example 80, (3-Methyl-1H-pyrazolo[4,3-c]pyridin-4-yl)-(3-morpholin-4-yl-phenyl)-aniline] | 1000 to 10000 nM |
| Cc1n[nH]c2ccnc(Nc3ccc4ncsc4c3)c12 [Example 313, Benzothiazol-6-yl-(3-methyl-1H-pyrazolo[4,3-c]pyridin-4-yl)-amine] | 100 to 1000 nM |
| Cc1n[nH]c2ccnc(NCCC3CCCN3C)c12 (stereo not shown) [Example 25, (3-Methyl-1H-pyrazolo[4,3-c]pyridin-4-yl)-[2-(1-methyl-pyrrolidin-2-yl)-ethyl]-amine] | 1000 to 10000 nM |
| Cc1n[nH]c2ccnc(Nc3ccc(-c4cnco4)cc3)c12 [Example 87, (3-Methyl-1H-pyrazolo[4,3-c]pyridin-4-yl)-(4-oxazol-5-yl-phenyl)-amine] | 100 to 1000 nM |
| Cc1n[nH]c2ccnc(Nc3cccc(C#N)c3)c12 [Example 347, 3-(3-Methyl-1H-pyrazolo[4,3-c]pyridin-4-ylamino)-benzonitrile] | 100 to 1000 nM |
| Cc1n[nH]cc1Nc1nccc2[nH]nc(C)c12 [Example 82, (3-Methyl-1H-pyrazolo[4,3-c]pyridin-4-yl)-(3-methyl-1H-pyrazol-4-yl)-amine] | 1000 to 10000 nM |
| COc1ccccc1CNc1nccc2[nH]nc(C)c12 [Example 336] | 1000 to 10000 nM |

| SMILES | IC50 |
| --- | --- |
| COc1ccc(CNc2nccc3[nH]nc(C)c23)c(OC)c1 [Example 97, (2,4-Dimethoxy-benzyl)-(3-methyl-1H-pyrazolo[4,3-c]pyridin-4-yl)-amine] | 1000 to 10000 nM |
| Cc1n[nH]c2ccnc(NCCc3ccc(F)cc3)c12 [Example 334, [2-(4-Fluoro-phenyl)-ethyl]-(3-methyl-1H-pyrazolo[4,3-c]pyridin-4-yl)-amine] | 100 to 1000 nM |
| Cc1n[nH]c2ccnc(Cc3ccccc3)c12 [Example 125, 4-Benzyl-3-methyl-1H-pyrazolo[4,3-c]pyridine] | 1000 to 10000 nM |
| N#Cc1cccc(C(=O)Nc2ccc(CCc3n[nH]c4ccnc(NC5CCCCC5)c34)cc2)c1 [Example 276, 3-Cyano-N-{4-[2-(4-cyclohexylamino-1H-pyrazolo[4,3-c]pyridin-3-yl)-ethyl]-phenyl}-benzamide] | < 100 nM |
| Cc1n[nH]c2ccnc(Nc3ccc(C(=O)NC4CCCC4)cc3)c12 [Example 106, N-Cyclopentyl-4-(3-methyl-1H-pyrazolo[4,3-c]pyridin-4-ylamino)-benzamide] | 1000 to 10000 nM |
| c1ccc([C@@H]2CCCN(CCCc3n[nH]c4ccnc(NC5CCCCC5)c34)C2)cc1 [Example 215, Cyclohexyl-{3-[3-((S)-3-phenyl-piperidin-1-yl)-Propyl]-1H-pyrazolo[4,3-c]pyridin-4-yl}-amine] | 1000 to 10000 nM |
| Cc1n[nH]c2ccnc(Nc3ccc(S(C)(=O)=O)cc3)c12 [Example 322, (4-Methanesulfonyl-phenyl)-(3-methyl-1H-pyrazolo[4,3-c]pyridin-4-yl)-amine] | 1000 to 10000 nM |
| Cc1n[nH]c2ccnc(OC3CCC3)c12 [Example 281, 4-Cyclobutoxy-3-methyl-1H-pyrazolo[4,3-c]pyridine] | 100 to 1000 nM |
| Cc1n[nH]c2ccnc(N[C@H](C)C3CCCCC3)c12 [Example 38, ((R)-1-Cyclohexyl-ethyl)-(3-methyl-1H-pyrazolo[4,3-c]pyridin-4-yl)-amine] | 1000 to 10000 nM |
| Cc1n[nH]c2ccnc(Nc3ccc4c(cnn4C)c3)c12 [Example 99, (1-Methyl-1H-indazol-5-yl)-(3-methyl-1H-pyrazolo[4,3-c]pyridin-4-yl)-amine] | 100 to 1000 nM |
| Oc1nccc2[nH]nc(-c3ccoc3)c12 [Example 167, 3-Furan-3-yl-1H-pyrazolo[4,3-c]pyridin-4-ol] | 100 to 1000 nM |
| O=C(/C=C/c1n[nH]c2ccnc(OC3CCCCC3)c12)N1CCC[C@H](c2ccccc2)C1 [Example 261, (E)-3-(4-Cyclohexyloxy-1H-pyrazolo[4,3-c]pyridin-3-yl)-1-((R)-3-phenyl-piperidin-1-yl)-propenone] | < 100 nM |
| Cc1n[nH]c2ccnc(NCC3CCOCC3)c12 [Example 17] | 1000 to 10000 nM |
| Cc1n[nH]c2ccnc(OC3CCN(C(C)C)CC3)c12 [Example 119, 4-(1-Isopropyl-piperidin-4-yloxy)-3-methyl-1H-pyrazolo[4,3-c]pyridine] | 1000 to 10000 nM |
| Cc1n[nH]c2ccnc(NC3CCN(C)CC3)c12 [Example 13, (1-Methyl-piperidin-4-yl)-(3-methyl-1H-pyrazolo[4,3-c]pyridin-4-yl)-amine] | 100 to 1000 nM |
| Cc1cc(C)c(Nc2nccc3[nH]nc(C)c23)cn1 [Example 350, (4,6-Dimethyl-pyridin-3-yl)-(3-methyl-1H-pyrazolo[4,3-c]pyridin-4-yl)-amine] | 1000 to 10000 nM |
| CNC(=O)c1ccc(-c2n[nH]c3ccnc(NC4CCCCC4)c23)cc1 [Example 139, 4-(4-Cyclohexylamino-1H-pyrazolo[4,3-c]pyridin-3-yl)-N-methyl-benzamide] | 1000 to 10000 nM |
